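Following 48 hours of exposure in 96-well plates, responses at five concentrations were used to interpolate endpoints linearly. GI50: concentration for 50% inhibition of growth. Definition used: TGI = concentration required for complete inhibition of growth.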
Assays:
Assay in all cases: DTP human tumour cell line panel, 48 h
[1] = tested on: NCI-H226 lung
[2] = tested on: NCI-H23 lung
[3] = tested on: NCI-H460 lung
[4] = tested on: NCI-H522 lung
[5] = tested on: NCI/ADR-RES ovarian
[6] = tested on: OVCAR-3 ovarian
[7] = tested on: OVCAR-4 ovarian
[8] = tested on: OVCAR-5 ovarian
[9] = tested on: OVCAR-8 ovarian
[10] = tested on: PC-3 prostate
[11] = tested on: RPMI-8226 leukemia
[12] = tested on: RXF 393 renal
[13] = tested on: SF-268 CNS
[14] = tested on: SF-295 CNS
[15] = tested on: SF-539 CNS
[16] = tested on: SK-MEL-2 melanoma
[17] = tested on: SK-MEL-28 melanoma
[18] = tested on: SK-MEL-5 melanoma
[19] = tested on: SK-OV-3 ovarian
[20] = tested on: SN12C renal
[21] = tested on: SNB-19 CNS
[22] = tested on: SNB-75 CNS
[23] = tested on: SR leukemia
[24] = tested on: SW-620 colon
[25] = tested on: T-47D breast
[26] = tested on: TK-10 renal
[27] = tested on: U251 CNS
[28] = tested on: UACC-257 melanoma
[29] = tested on: UACC-62 melanoma
[30] = tested on: UO-31 renal

COc1ccc(C(=O)COc2ccc(NC(=O)Nc3ccc(Cl)c(C(F)(F)F)c3)cc2)cc1 gave a TGI [1] of 21 µM, a GI50 [2] of 4.52 µM and a TGI [2] greater than 100 µM. For the same molecule, the GI50 [3] was 3.34 µM, the TGI [3] was greater than 100 µM and the GI50 [4] was 2960 nM. It also gave a TGI [4] greater than 100 µM, a GI50 [5] of 3.69 µM and a TGI [5] greater than 100 µM. The GI50 [6] was 3.3 µM, the TGI [6] was greater than 100 µM and the GI50 [7] was 2870 nM. For the same molecule, the TGI [7] was 17.9 µM, the GI50 [8] was 5.24 µM and the TGI [8] was greater than 100 µM. The GI50 [9] was 4.21 µM, the TGI [9] was greater than 100 µM and the GI50 [10] was 3.08 µM. The TGI [10] was greater than 100 µM, the GI50 [11] was 3.45 µM and the TGI [11] was greater than 100 µM. For the same molecule, the GI50 [12] was 4.29 µM, the TGI [12] was 15.3 µM and the GI50 [13] was 4.04 µM. The TGI [13] was greater than 100 µM, the GI50 [14] was 3.35 µM and the TGI [14] was 25.9 µM. The GI50 [15] was 4.12 µM, the TGI [15] was 26.4 µM and the GI50 [16] was 2860 nM. The TGI [16] was 34.4 µM, the GI50 [17] was 3.39 µM and the TGI [17] was 33.9 µM. For the same molecule, the GI50 [18] was 3.14 µM, the TGI [18] was 19.7 µM and the GI50 [19] was 8.07 µM. It also gave a TGI [19] greater than 100 µM, a GI50 [20] of 4.8 µM and a TGI [20] greater than 100 µM. It also gave a GI50 [21] of 3.86 µM, a TGI [21] of 22.7 µM and a GI50 [22] of 1670 nM. It also gave a TGI [22] of 14.3 µM, a GI50 [23] of 3.13 µM and a TGI [23] greater than 100 µM. The GI50 [24] was 5.3 µM, the TGI [24] was greater than 100 µM and the GI50 [25] was 3.06 µM. It also gave a TGI [25] of 92.3 µM, a GI50 [26] of 7.9 µM and a TGI [26] greater than 100 µM. For the same molecule, the GI50 [27] was 3.71 µM, the TGI [27] was 26.1 µM and the GI50 [28] was 2950 nM. The TGI [28] was greater than 100 µM, the GI50 [29] was 2790 nM and the TGI [29] was 9.38 µM. For the same molecule, the GI50 [30] was 3.75 µM and the TGI [30] was greater than 100 µM.
